These results are taken from patent US11673892B2, “Bicyclic compounds for use as RIP1 kinase inhibitors” (Genentech, Inc., priority 2017, dated 2023).

The experiment addresses T1, human RIP1 kinase domain (2-375) (Homo sapiens, UniProt Q13546).
T1 construct: Purified human RIP1 kinase domain (2-375) (50 nM); made in house; host or cells: baculovirus-infected insect cells
T1 sequence (Q13546 2-375): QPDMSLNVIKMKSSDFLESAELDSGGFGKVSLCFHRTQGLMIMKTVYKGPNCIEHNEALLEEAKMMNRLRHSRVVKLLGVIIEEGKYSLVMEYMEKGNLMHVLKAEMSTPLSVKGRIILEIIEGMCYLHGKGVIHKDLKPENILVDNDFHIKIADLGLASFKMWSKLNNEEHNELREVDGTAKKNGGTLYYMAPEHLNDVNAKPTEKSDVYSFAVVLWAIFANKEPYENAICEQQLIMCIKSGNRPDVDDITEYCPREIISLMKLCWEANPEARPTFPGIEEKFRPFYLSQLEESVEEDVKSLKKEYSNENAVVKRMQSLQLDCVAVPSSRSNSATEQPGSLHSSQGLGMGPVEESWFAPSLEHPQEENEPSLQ
Kind of experiment: RIP1 kinase inhibition biochemical assay (Transcreener ADP, fluorescence polarization). The following applies: Ki app (Morrison tight-binding fit); 50 nM enzyme, 50 uM ATP, 2 hours incubation. In short, it runs like this: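 Baculovirus-expressed human RIP1 kinase domain (2-375), 50 nM, incubated 2 h with compounds in pH 7.5 Hepes, 30 mM MgCl2, 50 uM ATP, 0.5% DMSO. ADP detected by Transcreener fluorescence-polarization tracer displacement; Ki^app from Morrison tight-binding fit.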
For orientation: In fluorescence polarisation assays a small probe gives low polarisation when free and higher when bound to something large.
In the case of `F[C@H]1C[C@@H](c2ccccc2)n2nc(-n3cnc(C(F)(F)F)c3)nc21` (single isomer, unassigned) [Example 62], the Ki is 160 nM.

`Cc1c(C#N)cnn1-c1nc2n(n1)[C@H](c1ccccc1)C[C@@H]2F` (single isomer, unassigned) [Example 93] displayed a Ki of 5 nM.

On to `FC(F)c1nc2n(n1)[C@@H](c1ccccc1)C[C@H]2F` (single isomer, unassigned) [Example 118], for which the Ki amounted to 180 nM.

Turning to `F[C@H]1C[C@@H](c2ccccc2)n2nc(-n3ncc4ccncc43)nc21` (racemic) [Example 87, 1-[rac-(5S,7S)-7-fluoro-5-phenyl-6,7-dihydro-5H-pyrrolo[1,2-b][1,2,4]triazol-2-yl]pyrazolo[3,4-c]pyridine], the Ki worked out at 160 nM.

`N#CC(F)c1nc2n(n1)[C@H](c1ccccc1)C[C@@H]2F` (stereo partly drawn) [Example 48, 2-fluoro-2-[(5S,7S)-7-fluoro-5-phenyl-6,7-dihydro-5H-pyrrolo[1,2-b][1,2,4]triazol-2-yl]acetonitrile] came in with a Ki of 910 nM.

Turning to `OC(c1nc2n(n1)[C@H](c1ccccc1)C[C@@H]2F)[C@@H]1C[C@H]1F` (stereo partly drawn) [Example 108, [(1S,2R)-2-fluorocyclopropyl]-[(5S,7S)-7-fluoro-5-phenyl-6,7-dihydro-5H-pyrrolo[1,2-b][1,2,4]triazol-2-yl]methanol], the Ki worked out at 120 nM.
